Measurements from patent US10905744B2, “Pharmaceutical formulations for the oral delivery of peptide drugs” (Cyprumed GmbH, priority 2015, dated 2021).

Experiments:
[1] = GLP-1 peptide formulations with SNAC and trace elements: dissolution in aqua purificata, visual (Example 4); type: physicochemical; settings: liraglutide 1.8 mg/ml, SNAC 20 mg, trace element 2 mg, disodium phosphate dihydrate, 2 ml aqua purificata
Experimental: Compositions comprising a GLP-1 peptide, a complexing agent (disodium phosphate dihydrate), the absorption enhancer N-(8-[2-hydroxybenzoyl]amino)caprylic acid (SNAC) and various trace elements or metal salts were prepared and dissolved in 2 ml of aqua purificata and examined visually.

trypsin = target: T1, trypsin (Bos taurus, UniProt P00760); assay: Trypsin inhibition, BAPNA substrate, absorbance at 405 nm (Examples 10-12, 20-22, 25, 26, 28, 29, 33); type: biochemical
T1 construct: gene PRSS1
T1 sequence (P00760 24-246): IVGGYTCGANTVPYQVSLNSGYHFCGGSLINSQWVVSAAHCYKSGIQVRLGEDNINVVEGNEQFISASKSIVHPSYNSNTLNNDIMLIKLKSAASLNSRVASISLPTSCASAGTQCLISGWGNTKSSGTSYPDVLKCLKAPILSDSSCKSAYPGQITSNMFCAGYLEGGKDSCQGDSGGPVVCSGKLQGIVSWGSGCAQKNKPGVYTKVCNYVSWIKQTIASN
Experimental: 100 mg/ml copper gluconate in 50 mM TRIS pH 7; pH was adjusted to pH 7; stock solution was diluted to the following concentrations: 50 mg/ml, 25 mg/ml, 12.5 mg/ml, 5 mg/ml, 6.25 mg/ml, 3.125 mg/ml, 2.5 mg/ml, 1.25 mg/ml, 0.625 mg/ml, 0.313 mg/ml, 0.156 mg/ml and 0.078 mg/ml
0.5 mg/mL Benzoyl-Arginine p-nitroanilide (BAPNA)
100 μl 50 mM TRIS pH 7+50 μL Trypsin Stock+50 μL BAPNA Stock
100 μl Copper solution (according to the above described dilutions)+50 μL Trypsin Stock+50 μL BAPNA Stock
Absorption was measured after 15 minutes at 405 nm.
Values were corrected (subtraction of blank).
100 mg/ml Zinc bisglycinate in 50 mM TRIS pH 7; pH was adjusted to pH 7; stock solution was diluted to the following concentrations: 50 mg/ml and 25 mg/ml
100 μl Zinc solution (according to the above described dilutions)+50 μL Trypsin Stock+50 μL BAPNA Stock
10 mg/ml iron gluconate in 50 mM TRIS pH 7; pH was adjusted to pH 7; stock solution was diluted to the following concentrations: 5 mg/ml, 2.5 mg/ml, 1.25 mg/ml and 0.625 mg/ml
100 μl Iron solution (according to the above described dilutions)+50 μL Trypsin Stock+50 μL BAPNA Stock
Absorption was measured directly at 405 nm.
Benzoyl-Arginine p-nitroanilide (BAPNA): 0.5 mg/ml in 50 mM TRIS pH 7 (centrifuged and supernatant used as stock solution)
Trypsin: […] in 50 mM TRIS pH 7
1 mg/mL iron gluconate in 10 mM TRIS pH 7 (iron content=12%), 0.12 mg/ml iron
12 mg/mL copper lysinate in 10 mM TRIS pH 7 (copper content=3%), 0.12 mg/ml copper
100 μl of the respective salt solution+50 μL Trypsin Stock+50 μL BAPNA Stock
Experiments were carried out at pH 7, 50 mM TRIS.
0.025 mg/ml Trypsin, 0.125 mg/mL Benzoyl-Arginine p-nitroanilide (BAPNA.) Lauryl glutamate:
0.25 mg/ml; copper content (as copper(II)gluconate): 0.035 mg/ml.
Adsorption measurement at 405 nm
0.025 mg/ml Trypsin, 0.125 mg/mL Benzoyl-Arginine p-nitroanilide (BAPNA). lauryl-glutamate:
Absorption measurement at 405 nm
0.025 mg/ml Trypsin, 0.125 mg/mL Benzoyl-Arginine p-nitroanilide (BAPNA). Capryl-glucoside:
Copper sulfate stock solution: 1 mg/ml of copper sulfate was dissolved in 50 mM TRIS pH 7. Copper tartrate stock solution: 1 mg/ml of copper tartrate was dispersed in 50 mM TRIS pH 7 and moderately stirred for 5 minutes. The suspension was then centrifuged at 3′000 rpm for 10 minutes, to separate the insoluble salt. The supernatant was used as stock solution for the experiments.
Zinc orotate stock solution: 1 mg/ml of zinc orotate was dispersed in 50 mM TRIS pH 7 and moderately stirred for 5 minutes. The suspension was then centrifuged at 3′000 rpm for 10 minutes, to separate the insoluble salt. The supernatant was used as stock solution for the experiments.
100 μL of the respective salt solution stock+50 μL Trypsin Stock+50 μL BAPNA Stock
Control: 100 μL of 50 mM TRIS pH 7+50 μL Trypsin Stock+50 μL BAPNA Stock
Final concentrations of protease and substrate were 0.025 mg/ml Trypsin, 0.125 mg/mL
50 μl manganese sulfate+50 μl copper gluconate+50 μL Trypsin Stock+50 μL BAPNA Stock
Absorption measurement at 405 nm; final pH in all solutions was monitored to be pH 7.
3 mg/ml SiO2—suspended in 50 mM TRIS pH 7 and centrifuged; supernatant was used for experiments.
50 μl SiO2+50 μl 50 mM TRIS pH 7+50 μL Trypsin Stock+50 μL BAPNA Stock
50 μl copper gluconate+50 μl SiO2+50 μL Trypsin Stock+50 μL BAPNA Stock
50 μl iron gluconate+50 μl SiO2+50 μL Trypsin Stock+50 μL BAPNA Stock
120 μl 50 mM TRIS pH 7+50 μL Trypsin Stock+50 μL BAPNA Stock
80 μl copper gluconate+40 μl 50 mM TRIS pH 7+50 μL Trypsin Stock+50 μL BAPNA Stock
40 μl copper gluconate+80 μl 50 mM TRIS pH 7+50 μL Trypsin Stock+50 μL BAPNA Stock
80 μl iron gluconate+40 μl 50 mM TRIS pH 7+50 μL Trypsin Stock+50 μL BAPNA Stock
40 μl iron gluconate+80 μl 50 mM TRIS pH 7+50 μL Trypsin Stock+50 μL BAPNA Stock
80 μl iron gluconate+40 μl copper gluconate+50 μL Trypsin Stock+50 μL BAPNA Stock

chymotrypsin = chymotrypsin (Bos taurus, UniProt P00766); assay: Chymotrypsin inhibition, BTPNA substrate, absorbance at 405 nm (Examples 9, 13-19, 23, 24, 27, 30, 31)
Experimental: CuSO4.5H2O dilutions in 10 mM TRIS buffer pH 7 to 10 mM, 5 mM, 2.5 mM 1.25 mM Benzoyl-Tyrosine p-nitroanilide (BTPNA): 0.5 mg/mL BTPNA in Acetone
Study: • (1) 100 μl buffer (10 mM TRIS, pH=7)+50 μl Chymotrypsin Stock+50 μl BTPNA • (2) 80 μl buffer (10 mM TRIS, pH=7)+20 μl CuSO4 stock (10 mM)+50 μl Chymotrypsin Stock+50 μl BTPNA • (3) 80 μl buffer (10 mM TRIS, pH=7)+20 μl CuSO4 dilut. (5 mM)+50 μl Chymotrypsin Stock+50 μl BTPNA • (4) 80 μl buffer (10 mM TRIS, pH=7)+20 μl CuSO4 stock (2.5 mM)+50 μl Chymotrypsin Stock+50 μl BTPNA • (5) 80 μl buffer (10 mM TRIS, pH=7)+20 μl CuSO4 dilut. (1.25 mM)+50 μl Chymotrypsin Stock+50 μl BTPNA
Final copper concentrations: 1 mM, 0.5 mM, 0.25 mM, 0.125 mM.
10 mM CuSO4 and Copper gluconate stock solution were diluted 1:1 with 10 mM TRIS buffer pH 7
Study: • (1) 100 μl buffer (10 mM TRIS, pH=7)+50 μl Chymotrypsin Stock+50 μl BTPNA • (2) 80 μl buffer (10 mM TRIS, pH=7)+20 μl CuSO4 dil. (5 mM)+50 μl Chymotrypsin Stock+50 μl BTPNA • (3) 80 μl buffer (10 mM TRIS, pH=7)+20 μl Copper gluconate dilut. (5 mM)+50 μl Chymotrypsin Stock+50 μl BTPNA • (4) 100 μl Cu-bisglycinate stock (0.5 mM)+50 μl Chymotrypsin Stock+50 μl BTPNA
10 mM CuSO4 stock solution was diluted 1:1 with 10 mM TRIS Puffer pH 7
Study: • (1) 30 μl buffer (10 mM TRIS, pH=7)+20 μl CuSO4 dil. (5 mM)+100 μl Chymotrypsin Stock: 30 min. incubation, then addition of 50 μl BTPNA • (2) 30 μl buffer (10 mM TRIS, pH=7)+100 μl Chymotrypsin Stock: 30 min. incubation, then addition of 20 μl CuSO4 dil. (5 mM)+50 μl BTPNA
Final copper concentration: 0.5 mM
Iron(II)-bisglycinate solution containing 1.86 mM of iron in 10 mM TRIS buffer pH 7 was prepared
Cu(II)-gluconate solution containing 2.0 mM of copper in 10 mM TRIS buffer pH 7 was prepared
Study: • (1) 100 μl buffer (10 mM TRIS, pH=7)+50 μl Chymotrypsin Stock+50 μl BTPNA • (2) 100 μl iron(II)-bisglycinate+50 μl Chymotrypsin Stock+50 μl BTPNA • (3) 100 μl copper(II)-gluconate+50 μl Chymotrypsin Stock+50 μl BTPNA
Values were corrected (subtraction of blank). Inhibition was calculated by setting the absorption value of (1) at each time-point as 100%.
Iron(II)-bisglycinate solution containing 0.46 mM of iron in 10 mM TRIS buffer pH 7 was prepared
Cu(II)- bisglycinate solution containing 0.46 mM of copper in 10 mM TRIS buffer pH 7 was prepared
Study: • (1) 100 μl buffer (10 mM TRIS, pH=7)+50 μl Chymotrypsin Stock+50 μl BTPNA • (2) 100 μl iron(II)-bisglycinate+50 μl Chymotrypsin Stock+50 μl BTPNA • (3) 100 μl copper(II)-bisglycinate+50 μl Chymotrypsin Stock+50 μl BTPNA
Values were corrected (subtraction of blank). Inhibition (%) was calculated by setting the absorption value of (1) at each time-point as 100% degradation.
Values were corrected (subtraction of blank). pH was confirmed to be pH 7 after the experiment.
0.025 mg/ml Chymotrypsin, 0.05 mg/mL Benzoyl-Tyrosine p-nitroanilide (BTPNA). Lauryl glutamate: 0.25 mg/ml; copper (as copper gluconate): 0.035 mg/ml.
0.025 mg/ml Chymotrypsin, 0.05 mg/mL Benzoyl-Tyrosine p-nitroanilide (BTPNA). Lauryl glutamate: 0.25 mg/ml; iron (as iron gluconate): 0.03 mg/ml.
100 μl 50 mM TRIS pH 7+50 μL Chymotrypsin Stock+50 μL BTPNA Stock
50 μl Beta-cyclodextrin+50 μl 50 mM TRIS pH 7+50 μL Chymotrypsin Stock+50 μL BTPNA Stock
50 μl copper gluconate+50 μl 50 mM TRIS pH 7+50 μL Chymotrypsin Stock+50 μL BTPNA Stock
50 μl copper gluconate+50 μl Beta-cyclodextrin+50 μL Chymotrypsin Stock+50 μL BTPNA Stock
50 μl copper gluconate+50 μl trisodium phosphate+50 μL Chymotrypsin Stock+50 μL BTPNA Stock
50 μl iron gluconate+50 μl trisodium phosphate+50 μL Chymotrypsin Stock+50 μL BTPNA Stock
Experiments were carried out at pH 7 in 50 mM TRIS buffer.

[2] = Compatibility of absorption enhancers with trace elements: dissolution in aqueous medium, visual examination (Example 1); type: physicochemical
Experimental: Solid dry powder mixtures of desmopressin acetate, zinc sulfate or iron(III) chloride, and different absorption enhancers were prepared and dissolved in 2 ml aqua purificata.

[3] = Example 16, 0 minutes, metal ion 0.015 mg/ml ([…]), 10 mM TRIS pH 7
[4] = desmopressin acetate + ZnSO4 5 mg/ml + absorption enhancer 10 mg/ml in 2 ml aqua purificata
[5] = desmopressin acetate + FeCl3 5 mg/ml + absorption enhancer 10 mg/ml in 2 ml aqua purificata
[6] = Example 26, 1 mg/ml stocks (supernatant for copper tartrate and zinc orotate), pH 7, 50 mM TRIS, FIG. 17

Row | Molecule | Dissolution in aqua purificata [1] | Dissolution in aqueous medium (2 ml) [2, 4] | Dissolution in aqueous medium (2 ml) [2, 5] | other results
1 | O=S(=O)([O-])[O-].[Cu+2] [Copper sulfate] | precipitation |  |  | trypsin inhibition (trypsin; pH 7): strongly inhibited; inhibition of chymotrypsin (chymotrypsin; Example 9, final copper 1, 0.5, 0.25, 0.125 mM, 10 mM TRIS pH 7, FIG. 2): inhibits the proteolytic enzyme chymotrypsin in a dose dependent manner; influence of copper pre-incubation on chymotrypsin activity (chymotrypsin; Example 14, CuSO4, final copper 0.5 mM, 30 min pre-incubation, FIG. 7): increases the chymotrypsin inhibitory activity
2 | NCC(=O)[O-].NCC(=O)[O-].[Cu+2] [Copper-bisglycinate] |  |  |  | Inhibition % (chymotrypsin; [3]): 0%
3 | Copper orotate | Clear solution |  |  | 
4 | NCC(=O)[O-].NCC(=O)[O-].[Zn+2] [zinc bisglycinate] |  |  |  | inhibition of trypsin (trypsin; pH 7): inhibits the proteolytic enzyme trypsin in a dose dependent manner
5 | lauryl-glutamate |  |  |  | trypsin inhibition (trypsin; Example 21, lauryl glutamate […], copper […], pH 7, 50 mM TRIS, FIG. 12): can be inhibited; trypsin inhibition (trypsin; Example 22, lauryl-glutamate […], iron 0.03 mg/ml, pH 7, 50 mM TRIS, FIG. 13): can be inhibited
6 | Zinc picolinate | Clear solution |  |  | 
7 | O=C(O)CC(O)(CC(=O)O)C(=O)O [Citric acid] |  | Clear solution |  | 
8 | CCCCCCCCCCCCO[C@@H]1O[C@H](CO)[C@@H](O[C@H]2O[C@H](CO)[C@@H](O)[C@H](O)[C@H]2O)[C@H](O)[C@H]1O [n-Dodecyl-b-D-maltoside] |  | Clear solution | Clear solution | 
9 | Zinc carnosine | Clear solution |  |  | 
10 | C[C@H](CCC(=O)O)[C@H]1CC[C@H]2[C@@H]3[C@H](O)C[C@@H]4C[C@H](O)CC[C@]4(C)[C@H]3C[C@H](O)[C@]12C [Cholic acid] |  | Precipitation | Precipitation | 
11 | NCCCC[C@H](N)C(=O)O.NCCCC[C@H](N)C(=O)O.[Cu] [copper(II)lysinate] |  |  |  | trypsin inhibition (trypsin; Example 20, solutions 1 mg/mL iron gluconate, 1 mg/mL copper gluconate, 12 mg/mL copper lysinate, FIG. 11): can be inhibited
12 | CC(=O)[O-].CC(=O)[O-].[Zn+2] [Zinc acetate] | precipitation |  |  | 
13 | O=S(=O)([O-])[O-].[Zn+2] [ZnSO4, zinc sulfate] | precipitation |  |  | 
14 | O=C([O-])C(O)C(O)C(=O)[O-].[Cu+2] (stereo not shown) [copper tartrate] |  |  |  | trypsin inhibition (trypsin; [6]): show trypsin inhibitory properties in vitro
15 | CCCCCCCCCC(=O)[O-].[Na+] [Sodium caprate] |  | Precipitation | Precipitation | 
16 | [Cl-].[Cl-].[Zn+2] [ZnCl2, zinc chloride] | precipitation |  |  | 
17 | CCCCCCCCCCCCOS(=O)(=O)[O-].[Na+] [Sodium dodecyl sulfate] |  | Clear solution | Clear solution | 
18 | CCCCCCCCCCCC(=O)OC(CC(=O)O)C[N+](C)(C)C.[Cl-] (stereo not shown) [Lauroyl carnitine HCl] |  | Clear solution | Clear solution | 
19 | C[C@H](CCC(=O)[O-])[C@H]1CC[C@H]2[C@@H]3[C@H](O)C[C@@H]4C[C@H](O)CC[C@]4(C)[C@H]3C[C@H](O)[C@]12C.[Na+] [Sodium cholate] |  | Precipitation | Precipitation | 
20 | CCCCCCCC(=O)[O-].[Na+] [Sodium caprylate] |  | Precipitation | Precipitation | 
21 | Zinc orotate | Clear solution |  |  | trypsin inhibition (trypsin; [6]): show trypsin inhibitory properties in vitro
22 | [Cl][Fe]([Cl])[Cl] [Fe(III)chlorid, iron(III) chloride] | precipitation |  |  | 
23 | O=C(O)CN(CCN(CC(=O)O)CC(=O)O)CC(=O)O [EDTA] |  |  |  | chymotrypsin inhibition (chymotrypsin; Example 18, stocks: copper gluconate 10 mM, EDTA 5 mM, sodium caprylate 4 mg/ml, pH 7, FIG. 9): can inhibit chymotrypsin; effect on chymotrypsin inhibition (chymotrypsin; Example 19, EDTA added to a solution of copper gluconate, Tween 20 and sodium caprylate, FIG. 10): positive effect on chymotrypsin inhibition; chymotrypsin inhibition (chymotrypsin; Example 31, stocks […] copper(II)gluconate, 1.25 mM EDTA, pH 7, 10 mM TRIS, FIG. 22): can be inhibited
24 | CCCCCCCCO[C@@H]1O[C@H](CO)[C@@H](O)[C@H](O)[C@H]1O [n-Octyl-b-D-glucopyranoside] |  | Clear solution | Clear solution | 
25 | NCC(=O)[O-].NCC(=O)[O-].[Fe+2] [Iron bisglycinate] | Clear brownish solution |  |  | Inhibition % (chymotrypsin; Example 15, 0 minutes, metal ion Fe 0.06 mg/ml (0.92 mM), Cu 0.065 mg/ml (1.0 mM), 10 mM TRIS pH 7): 0%; Inhibition % (chymotrypsin; Example 15, 15 minutes, metal ion Fe 0.92 mM, Cu 1.0 mM): 69%; Inhibition % (chymotrypsin; Example 15, 30 minutes, metal ion Fe 0.92 mM, Cu 1.0 mM): 62%; Inhibition % (chymotrypsin; Example 15, 45 minutes, metal ion Fe 0.92 mM, Cu 1.0 mM): 56%; Inhibition % (chymotrypsin; Example 15, 60 minutes, metal ion Fe 0.92 mM, Cu 1.0 mM): 52%; Inhibition % (chymotrypsin; [3]): 0%
